{"source": "paper PMC10856454", "about": "“Discovery of Novel Antitumor Small-Molecule Agent with Dual Action of CDK2/p-RB and MDM2/p53” (Molecules, 2024)", "key": {"[1]": {"test_system": "HCT116 cells", "experiment": "Cell proliferation assay (Celltiter-Glo), HCT116", "type": "cell-based", "details": "Homo sapiens, HCT-116, 72 h; HCT116 (overexpression of CCNE1), three days", "method": "(§1) Celltiter-Glo Luminescent Cell Viability Assay (Promega, Madison, WI, USA) was used to detect cell viability according to the manufacturer’s instructions. This assay is a homogeneous method of determining the number of viable cells in a culture based on quantitation of the ATP present, an indicator of metabolically active cells. Cells were digested and paved in white-bottomed 96-well plates with 1000 cells/100 μL cell suspension solution; then, different concentrations of compounds were added the next day. TOV-21G and HCT116 were placed in the incubator for three days and OVCAR3 for five days. Then, 100 μL Celltiter-Glo solution was added and mixed for 5 min; the luminous intensity of each well was detected with a spectrophotometer (BioTek, Winooski, VT, USA). The experiment was repeated three times to calculate the cell survival rate."}, "[2]": {"test_system": "OVCAR3 cells", "experiment": "Cell proliferation assay (Celltiter-Glo), OVCAR3", "type": "cell-based", "details": "Homo sapiens, OVCAR-3, 120 h; OVCAR3 (overexpression of CCNE1), five days", "method": "as §1"}, "[3]": {"biological_target": "T1, CDK1 (Homo sapiens, UniProt P06493)", "T1 construct": "purchased Thermo Fisher Scientific", "T1 sequence (P06493 whole entry)": "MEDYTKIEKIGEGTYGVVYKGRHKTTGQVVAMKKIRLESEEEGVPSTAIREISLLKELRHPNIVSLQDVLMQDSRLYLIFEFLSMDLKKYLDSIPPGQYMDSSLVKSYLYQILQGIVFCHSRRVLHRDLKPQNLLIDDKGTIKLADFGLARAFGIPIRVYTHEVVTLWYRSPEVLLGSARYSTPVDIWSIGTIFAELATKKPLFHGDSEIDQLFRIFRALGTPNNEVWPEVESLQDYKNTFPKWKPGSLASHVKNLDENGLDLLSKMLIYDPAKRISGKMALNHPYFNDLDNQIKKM", "T1 sequence (P14635 whole entry partner)": "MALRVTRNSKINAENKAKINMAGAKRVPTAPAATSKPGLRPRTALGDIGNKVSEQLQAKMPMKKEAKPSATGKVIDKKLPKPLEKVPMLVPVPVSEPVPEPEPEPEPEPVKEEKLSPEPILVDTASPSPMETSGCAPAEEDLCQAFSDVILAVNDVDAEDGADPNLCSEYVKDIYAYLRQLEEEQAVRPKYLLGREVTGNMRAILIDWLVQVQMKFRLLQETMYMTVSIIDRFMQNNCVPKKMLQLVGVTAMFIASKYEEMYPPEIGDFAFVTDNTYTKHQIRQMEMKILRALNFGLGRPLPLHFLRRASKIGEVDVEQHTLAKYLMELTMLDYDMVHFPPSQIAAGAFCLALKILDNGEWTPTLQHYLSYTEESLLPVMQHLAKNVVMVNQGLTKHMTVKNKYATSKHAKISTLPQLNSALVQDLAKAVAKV", "experiment": "Kinase antagonist activity assay (TR-FRET), CDK1", "type": "biochemical", "method": "(§2) The compounds were solubilized with DMSO (Solarbio Life Sciences, Beijing, China), and 11 concentrations were serially diluted at 3-fold; 100 nL of compound was added to 384-well plates, 5 μL of 2 × enzyme mixture (Thermo Fisher Scientific, Waltham, MA, USA) was added, and 5 μL of buffer was added instead of the complete inhibition control wells. Then, 1000 rpm centrifugation was performed for 30 s followed by a 15 min incubation at 23 °C. Next, 5 μL of 2 × MLight-MBP peptide (PerkinElmer, Waltham, MA, USA) was added to each well, with 1000 rpm centrifugation for 30 s and incubation at 23 °C for 90 min. At the end of the incubation, the reaction was terminated with buffer containing 15 mM EDTA and 2 nM Eu-anti-P-MBP antibody (PerkinElmer, Waltham, MA, USA), centrifuged at 1000 rpm for 1 min, and incubated at 23 °C for 60 min; the plates were read on a Perkin Elmer Envision ([…])."}, "[4]": {"test_system": "p-Rb, MDM2, p53 in HCT116 transplanted tumors", "experiment": "Western blot of transplanted tumor tissues of nude mice", "type": "in vivo, Balb/c nude mice", "details": "Western blot of tumor tissue", "method": "(§3) Total protein from HCT116, OVCAR3 cells and tissues was collected and homogenized in RIPA buffer. The total cellular protein extract was electrophoresed on 12% SDS-polyacrylamide gels and then transferred to a PVDF membrane (Thermo Fisher Scientific, Waltham, MA, USA). Primary antibodies were incubated overnight at 4 °C and secondary antibodies were incubated at room temperature for 1.5 h. Imaging was performed using Image Quant LAS4000 (GE, Boston, MA, USA).\n(§4) HCT116 cells (1 × 10^6) were implanted into the back of adult male Balb/c nude mice by subcutaneous injection. […] The solvent or drug containing solution was administered daily to the vehicle and dosing groups by intraperitoneal injection (0.2 mL/20 g). Tumor growth was measured every three days during treatment. At the end of the treatment, the mice were killed, and the tumors were removed and weighed."}, "[5]": {"test_system": "HCT116 cells", "experiment": "Cell cycle detection by flow cytometry, HCT116", "type": "cell-based", "details": "24 h", "method": "(§5) Cells were plated at 300,000 cells overnight in six-well plates. III-13 was added in a dose-dependent fashion and then cells were incubated for 24 h. The cells were then fixed with 75% ethanol overnight at 4 °C. The cells were centrifuged, and ethanol was removed. The cells were washed twice with 1 × PBS following staining with DAPI (4′, 6′ diamino-2-phenylindole) and analyzed using Guava easyCyte HT (Merck KGaA, Darmstadt, Germany) with a blue filter. Experiments were performed in triplicate."}, "[6]": {"test_system": "OVCAR3 cells", "experiment": "Cell scratch test (migration), OVCAR3", "type": "cell-based", "details": "24 h", "method": "(§6) Cells were inoculated into six-well plates as long as they spread to the bottom of the wells after wall attachment. After 24 h of wall attachment, cells were scratched with a 200 μL pipette tip and then replaced with low serum medium (1% FBS) containing different concentrations of compounds. Spot photographs were taken at 0 h and 24 h after the scratch was made. Data analysis was performed using Adobe Photoshop 2021 (Adobe Systems Software Ireland Ltd., San Jose, CA, USA) and Image J2 (National Institutes of Health, Bethesda, MD, USA)."}, "[7]": {"experiment": "Caco-2 permeability and transporter substrate evaluation", "type": "in vitro ADME", "details": "human, Caco-2, 2 μM", "method": "Caco-2 cells were cultured in MEM with 20% FBS, penicillin (100 U/mL), and streptomycin (100 μg/mL) at 37 °C in 95% air and 5% CO2. Cells were seeded into 96-well cell plates and cultured continuously for 24 days for subsequent experiments. […] After 120 min of incubation, samples were collected from the apical and basal ends. The […] content of each sample was determined by liquid chromatography–tandem mass spectrometry (LC-MS/MS). The apparent […] coefficient and efflux ratio were calculated."}, "[8]": {"test_system": "p-Rb, p-CDK2 in HCT116 cells", "experiment": "Western blot of CDK2 pathway proteins in HCT116 cells", "type": "cell-based", "method": "as §3"}, "[9]": {"biological_target": "T2, CDK6 (Homo sapiens, UniProt Q00534)", "T2 construct": "purchased Thermo Fisher Scientific", "T2 sequence (Q00534 whole entry)": "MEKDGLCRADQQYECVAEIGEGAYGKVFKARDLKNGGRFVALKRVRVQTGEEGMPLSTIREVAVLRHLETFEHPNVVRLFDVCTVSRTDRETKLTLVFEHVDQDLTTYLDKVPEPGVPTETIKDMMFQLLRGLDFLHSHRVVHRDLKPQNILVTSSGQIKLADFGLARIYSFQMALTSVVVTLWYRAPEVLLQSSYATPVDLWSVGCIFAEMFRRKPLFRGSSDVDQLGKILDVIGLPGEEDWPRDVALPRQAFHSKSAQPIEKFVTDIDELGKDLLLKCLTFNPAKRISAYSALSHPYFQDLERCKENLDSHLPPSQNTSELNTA", "T2 sequence (P24385 whole entry partner)": "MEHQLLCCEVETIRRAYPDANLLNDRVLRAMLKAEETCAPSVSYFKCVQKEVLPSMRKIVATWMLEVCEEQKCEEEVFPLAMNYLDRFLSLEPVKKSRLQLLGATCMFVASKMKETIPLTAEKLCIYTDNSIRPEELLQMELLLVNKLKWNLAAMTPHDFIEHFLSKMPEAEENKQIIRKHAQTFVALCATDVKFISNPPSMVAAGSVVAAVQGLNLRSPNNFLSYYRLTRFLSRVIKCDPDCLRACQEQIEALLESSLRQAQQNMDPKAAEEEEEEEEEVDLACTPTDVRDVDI", "experiment": "Kinase antagonist activity assay (TR-FRET), CDK6", "type": "biochemical", "method": "as §2"}, "[10]": {"test_system": "p-Rb, p-CDK2, MDM2, p53 in OVCAR3 cells", "experiment": "Western blot of CDK2 pathway, MDM2 and p53 proteins in OVCAR3 cells", "type": "cell-based", "method": "as §3"}, "[11]": {"test_system": "HCT116 cells", "experiment": "Cell scratch test (migration), HCT116", "type": "cell-based", "details": "24 h", "method": "as §6"}, "[12]": {"test_system": "HCT116 transplanted tumor", "experiment": "Tumor xenograft experiment, nude mouse model of HCT116 transplanted tumor", "type": "in vivo, Balb/c nude mice", "method": "as §4"}, "[13]": {"test_system": "OVCAR3 cells", "experiment": "Cell cycle detection by flow cytometry, OVCAR3", "type": "cell-based", "details": "24 h", "method": "as §5"}, "[14]": {"details": "50 mg/kg, intraperitoneal daily, 14 days"}}}
{"compound": "CC1(C)CCN1C(=O)O[C@@H]1CC[C@H](c2cc(NC(=O)Cc3ccc(N4CCCC4=O)cc3)n[nH]2)C1", "note": "[III-13]", "values": [{"measurement": "IC50", "setting": "[1]", "result": 60.9, "unit": "nM"}, {"measurement": "IC90", "setting": "[1]", "result": 235, "unit": "nM"}, {"measurement": "IC50", "setting": "[2]", "result": 115, "unit": "nM"}, {"measurement": "IC90", "setting": "[2]", "result": 398, "unit": "nM"}, {"measurement": "IC50", "setting": "[3]", "result": 528, "unit": "nM"}, {"measurement": "IC90", "setting": "[3]", "result": 5640, "unit": "nM"}, {"measurement": "level of MDM2 in transplanted tumors", "setting": "[4]", "result": "significantly down-regulated"}, {"measurement": "level of p53 protein in transplanted tumors", "setting": "[4]", "result": "up-regulated"}, {"measurement": "level of p-Rb in the transplanted tumors", "setting": "[4]", "result": "significantly reduced"}, {"measurement": "cell cycle arrest", "setting": "[5]", "result": "arrested HCT116 and OVCAR3 cells in the G0/G1 phase"}, {"measurement": "migration rate", "setting": "[6]", "result": "decreased significantly"}, {"measurement": "Papp A→B at 120 min, 2 µM", "setting": "[7]", "result": 1.6, "unit": "×10⁻⁶ cm/s"}, {"measurement": "Papp B→A at 120 min, 2 µM", "setting": "[7]", "result": 8.56, "unit": "×10⁻⁶ cm/s"}, {"measurement": "efflux ratio at 120 min, 2 µM", "setting": "[7]", "result": 5.34}, {"measurement": "expression of p-Rb", "setting": "[8]", "result": "significantly reduced"}, {"measurement": "p-CDK2 expression", "setting": "[8]", "result": "no significant effect"}, {"measurement": "IC50", "setting": "[9]", "result": 1300, "unit": "nM"}, {"measurement": "IC90", "setting": "[9]", "result": 16000, "unit": "nM"}, {"measurement": "MDM2 protein expression", "setting": "[10]", "result": "inhibited"}, {"measurement": "p53 expression", "setting": "[10]", "result": "significantly elevated"}, {"measurement": "expression of p-Rb", "setting": "[10]; OVCAR3 cells", "result": "significantly reduced"}, {"measurement": "p-CDK2 expression", "setting": "[10]; OVCAR3 cells", "result": "no significant effect"}, {"measurement": "migration rate", "setting": "[11]", "result": "decreased significantly"}, {"measurement": "tumor volume reduced by", "setting": "[12]; [14]", "result": "~69.81", "unit": "%"}, {"measurement": "tumor weight reduced by", "setting": "[12]; [14]", "result": "~60.16", "unit": "%"}, {"measurement": "weight loss in mice", "setting": "[12]; 14 days of treatment", "result": "did not cause significant weight loss"}, {"measurement": "tumor volume", "setting": "[12]; both 25 and 50 mg/kg, intraperitoneal daily, 14 days", "result": "significantly reduced"}, {"measurement": "cell cycle arrest", "setting": "[13]", "result": "arrested HCT116 and OVCAR3 cells in the G0/G1 phase"}]}
